The values below come from patent US7119107B2, “Pyridone derivatives” (Banyu Pharmaceutical Co., Ltd., priority 2002, dated 2006).

As a reminder, the bioavailability is the share of a dose that reaches the circulation, judged against a reference dose that is usually intravenous. Broadly, the half-life is how long it takes for the measured level to halve. The low end stands for fast loss, the high end for slow loss.

Where two headings read alike, the source gives them in different places.

Series [1] in a line: Brain/cerebrospinal fluid transport test. The class given is in vivo, male SD rats. The conditions noted are these: rat, one hour after oral administration (10 mg/kg); for concentration at 1 h: male, SD. How it is done: Pharmacological Test 4 (Brain/Cerebrospinal Fluid Transport Test)
A test compound was orally or intravenously administered to male SD rats (7–10 weeks old, 200–400 g), and whole blood was collected from the abdominal aorta using a heparin-treated syringe under the ether anesthesia at designated time. Then, the head skin was cut out, and a dental 30 G needle was inserted between the cervical vertebrae, and it was further inserted into the cavum subarachnoideum. After 50 to 100 μL cerebrospinal fluid had been collected by a 1 ml-syringe through a tube connected to the dental 30 G needle, the brain was extracted. The blood sample was centrifuged (4° C., 6,000 r.p.m., 10 minutes) to obtain the plasma, and 3-fold amount of ethanol containing an internal standard was added and stirred. The brain sample was homogenized after addition of 2 ml water, and an aliquot of the homogenate was taken and 3-fold amount of ethanol containing an internal standard was added and stirred. The cerebrospinal fluid was stirred after adding 3-fold amount of ethanol containing an internal standard. These samples were allowed to stand at −20° C. for 20 minutes, and then centrifuged (4° C., 12,000 g, 10 minutes). The supernatant was analyzed by LC/MS/MS, and the concentration of the test compound in the plasma, brain, and cerebrospinal fluid were measured by the method using a relative calibration curve.

A short description of the next series: Pharmacokinetics test. As to conditions: rat, plasma, male SD rats, overnight fasting. The series is classed as in vivo. How it is done: Pharmacological Test 3 (Pharmacokinetics Test)
A test compound was orally or intravenously administered to male SD rats (7–10 weeks old, 200–400 g) under the overnight fasting condition. About 100 μL of blood was collected from the tail vein by heparinized capillary at designated time. The blood was centrifuged (4° C., 6,000 r.p.m., 10 minutes) to obtain the plasma. Three-fold amount of ethanol containing an internal standard was added to plasma. The mixture was stirred, allowed to stand at −20° C. for 20 minutes, and then centrifuged (4° C., 10,000 r.p.m., 10 minutes). The supernatant was analyzed by LC/MS/MS, and the concentration of the test compound in the plasma was measured using a relative calibration curve.

Series [2] concerns gastrointestinal motility. The experiment in a line: Gastrointestinal motility (charcoal transportation). As to conditions: mice, 100 mg/kg orally, charcoal one hour later. The class given is in vivo, male ICR mice. How it is done: Pharmacological Test 6 (Gastrointestinal Motility) A test compound was orally administered to male ICR mice (4–6 weeks old) under the overnight fasting condition and, one hour later, 0.5% charcoal suspension (0.1 ml/10 g body weight) was orally administered. One hour after the administration of the charcoal, gastrointestinal tracts of the animals were removed, and length of the intestine from pylorus to the point to which charcoal reached was measured to obtain charcoal transportation ratio.

The next series relates to general symptoms. In words: General symptoms observation. The class given is in vivo. As to conditions: mice, 100 mg/kg orally, observed 0.5 to 24 hours after administration. As for the experimental part: Pharmacological Test 5 (General Symptoms Observation)
A test compound was orally administered to male ICR mice (4–6 weeks old) under the overnight fasting condition, and general symptoms were observed 0.5, 1, 2, 3, 4 and 24 hours after the administration. The following 28 items were observed: stereotypy, glooming, vocalization, exploratory behavior, motor coordination, Straub tail reaction, tremor, convulsion, body posture, piloerection, writhing, palpebral opening, exophthalmos, skin color, respiratory rate, urination, defecation, salivation, lacrimation, startle response, aggression, grip strength, corneal reflex, body temperature, body tone, righting reflex, pain response and death.

The next series addresses T1, human NPY Y5 receptor (Homo sapiens, UniProt Q15761).
T1 construct: expressed in transfected cells; host or cells: COS-7, CHO and LM(tk-)
T1 sequence (Q15761 1-445): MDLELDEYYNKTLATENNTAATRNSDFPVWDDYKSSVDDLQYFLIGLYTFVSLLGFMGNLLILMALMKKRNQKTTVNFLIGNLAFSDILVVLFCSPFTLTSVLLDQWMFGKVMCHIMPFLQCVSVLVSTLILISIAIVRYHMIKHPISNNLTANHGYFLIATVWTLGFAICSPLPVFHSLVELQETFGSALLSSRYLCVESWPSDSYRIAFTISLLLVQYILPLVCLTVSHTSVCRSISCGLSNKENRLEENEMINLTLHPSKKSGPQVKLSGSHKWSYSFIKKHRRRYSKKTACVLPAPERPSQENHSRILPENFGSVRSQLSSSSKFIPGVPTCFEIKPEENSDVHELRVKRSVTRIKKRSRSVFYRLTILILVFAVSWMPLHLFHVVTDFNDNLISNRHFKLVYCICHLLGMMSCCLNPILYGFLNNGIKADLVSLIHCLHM
In words: NPY binding inhibition test ([125I]peptide YY binding to membranes of NPY Y5 receptor expression cells). As to conditions: [125I]peptideYY, membranes of NPY Y5 receptor expressing cells, 25° C., 2 hours; read-out: 50% Inhibitory Concentration (IC50) against specific peptide YY binding. The text has this: Pharmacological Test 1 (NPY Binding Inhibition Test)
cDNA sequence encoding human NPY Y5 receptor (c.f. International patent publication WO96/16542) was cloned into expression vectors pcDNA3, pRc/RSV (made by Invitrogen Inc.) and pCI-neo (made by Promega Inc.). The expression vectors thus obtained were transfected to host cells COS-7, CHO and LM(tk−) (American Type Culture Collection) by cationic lipid method (Proceedings of the National Academy of Sciences of the United States of America, vol. 84: p. 7413(1987)) to give NPY Y5 receptor expression cells.
A membrane sample prepared from the cells which expressed NPY Y5 receptor was incubated together with a test compound and [^125I]peptideYY (made by NEN) (20,000 cpm) in an assay buffer (25 mM Tris buffer, pH7.4, containing 10 mM magnesium chloride, 1 mM phenylmethylsulfonyl fluoride, 0.1% bacitracin and 0.5% bovine serum albumin) at 25° C. for 2 hours, then filtered through a glass filter GF/C and washed with 5 mM Tris buffer (pH7.4) containing 0.3% BSA. The radioactivity of the cake on the glass filter was measured. Non-specific binding was measured in the presence of 1 μM peptide YY, and a 50% Inhibitory Concentration (IC50) of the test compound against specific peptide YY binding was determined (Endocrinology, vol. 131: p. 2090(1992)).

Another series has as its system canine cardiac function. In words: Canine cardiac function. The series is classed as in vivo, male beagle dogs. As to conditions: anesthetized beagle dogs, 3 mg/kg and 10 mg/kg via vein cannula, up to 60 minutes. The text has this: Pharmacological Test 7 (Canine Cardiac Function)
The left femoral artery and vein of male beagle dogs (age: 9 months or older, weight: 10–15 kg) under anesthesia with isoflurane and artificial respiration were respectively cannulated for determination of arterial pressure and for administration of drugs. A tip catheter pressure transducer was placed in the left ventricle from the left carotid artery for determination of the left ventricular pressure. A Swan-Ganz catheter was placed in the pulmonary artery from the jugular vein via the right ventricle for determination of the pulmonary artery pressure, right atrium pressure and cardiac output. A transit doppler flow probe was attached to the right femoral artery for determination of the femoral blood flow. After completion of the operation, a solvent was administered from the cannula in the vein, followed by administration of a drug to be tested. Each parameter was determined just after the administration, and 10, 20, 30 and 60 minutes after the administration. The parameters determined were artery pressure, left ventricular pressure, pulmonary artery pressure, right atrium pressure, cardiac output, femoral blood flow, heart rate, electrocardiogram, left ventricular contractile performance (first differential of the left ventricular pressure), total peripheral vascular resistance, body temperature and arterial blood gas.

For `C[C@@H]1NC(c2cccc(=O)[nH]2)=N[C@]1(c1ccc(F)cc1)c1ccnc(F)c1` [Example 1, 6-[(4R,5S)-4-(4-fluorophenyl)-4-(2-fluoro-4-pyridyl)-5-methyl-2-imidazolin-2-yl]-2(1H)-pyridinone], the concentration at 1 h in series [1] (cerebrospinal fluid, read-out: concentration in the cerebrospinal fluid) is 106 nM; in series [1] (plasma, read-out: concentration in the plasma), 2790 nM. The “concentration in the brain” value in series [1] was 0.29 nmol/g. This compound also registered a bioavailability in the series “Pharmacokinetics test” (oral or intravenous administration) of 51%. The compound also showed a half-life in the series “Pharmacokinetics test” of 150 min. For the same compound, the “effect on gastrointestinal motility (charcoal transportation ratio)” value in series [2] is “did not affect”. In addition, the “effect on general symptoms (28 items)” value with general symptoms is listed as “did not affect”. Also, the IC50 at human NPY Y5 receptor amounted to 2.8 nM. The “effect on canine cardiac function” value in the series with canine cardiac function is given as “did not affect”.
